Assay results from patent US10329278B2, “Pharmaceutical compounds” (Heptares Therapeutics Limited, priority 2017, dated 2019).
Several values for one entry are separate records, joined by “and”; a condition that tells them apart may be missing. Identical values can stand only once. Like-named read-outs stand apart in the source and are kept apart here.

Legend:
[1] = target: T1, human muscarinic M1 receptor (Homo sapiens, UniProt P11229); assay: Alphascreen Surefire phospho-ERK1/2 functional assay, M1; assay type: cell-based; conditions: for EC50 / pEC50 M1 / % Emax cf. ACh (M1): CHO cells stably expressing human M1; for EC50 / pEC50 M1: agonist 5 min, 37° C.; for EC50: read-out: pEC50 M1 (converted); for Emax: CHO, read-out: % Emax cf. ACh (M1), CHO cells stably expressing human M1; for Emax / % Emax cf. ACh (M1): relative to ACh
T1 sequence (P11229 1-460): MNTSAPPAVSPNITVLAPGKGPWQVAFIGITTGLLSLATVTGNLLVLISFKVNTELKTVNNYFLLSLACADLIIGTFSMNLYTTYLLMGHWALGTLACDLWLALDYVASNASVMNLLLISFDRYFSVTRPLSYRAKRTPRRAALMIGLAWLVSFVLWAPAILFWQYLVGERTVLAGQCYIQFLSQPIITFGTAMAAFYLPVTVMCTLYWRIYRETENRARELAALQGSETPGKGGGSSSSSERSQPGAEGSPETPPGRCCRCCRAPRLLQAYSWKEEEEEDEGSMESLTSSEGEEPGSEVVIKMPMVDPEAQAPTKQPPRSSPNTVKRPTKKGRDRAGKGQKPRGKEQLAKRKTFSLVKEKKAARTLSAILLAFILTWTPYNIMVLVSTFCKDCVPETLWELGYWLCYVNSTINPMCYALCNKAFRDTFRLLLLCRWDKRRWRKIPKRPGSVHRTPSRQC
Experimental: (§1) ERK1/2 phosphorylation is a downstream consequence of both Gq/11 and Gi/o protein coupled receptor activation, making it highly suitable for the assessment of M1, M3 (Gq/11 coupled) and M2, M4 receptors (Gi/o coupled), rather than using different assay formats for different receptor subtypes. CHO cells stably expressing the human muscarinic M1, M2, M3 or M4 receptor were plated (25K/well) onto 96-well tissue culture plates in MEM-alpha+10% dialysed FBS. Once adhered, cells were serum-starved overnight. Agonist stimulation was performed by the addition of 5 μL agonist to the cells for 5 min (37° C.). Media was removed and 50 μL of lysis buffer added. After 15 min, a 4 μL sample was transferred to 384-well plate and 7 μL of detection mixture added.

[2] = target: T2, human muscarinic M4 receptor (Homo sapiens, UniProt P08173); assay: Alphascreen Surefire phospho-ERK1/2 functional assay, M4; assay type: cell-based; conditions: for EC50 / pEC50 M4 / % Emax cf. ACh (M4): CHO cells stably expressing human M4; for EC50 / pEC50 M4: agonist 5 min, 37° C.; for EC50: read-out: pEC50 M4 (converted); for Emax: CHO
T2 construct: expressed in transfected cells
T2 sequence (P08173 1-479): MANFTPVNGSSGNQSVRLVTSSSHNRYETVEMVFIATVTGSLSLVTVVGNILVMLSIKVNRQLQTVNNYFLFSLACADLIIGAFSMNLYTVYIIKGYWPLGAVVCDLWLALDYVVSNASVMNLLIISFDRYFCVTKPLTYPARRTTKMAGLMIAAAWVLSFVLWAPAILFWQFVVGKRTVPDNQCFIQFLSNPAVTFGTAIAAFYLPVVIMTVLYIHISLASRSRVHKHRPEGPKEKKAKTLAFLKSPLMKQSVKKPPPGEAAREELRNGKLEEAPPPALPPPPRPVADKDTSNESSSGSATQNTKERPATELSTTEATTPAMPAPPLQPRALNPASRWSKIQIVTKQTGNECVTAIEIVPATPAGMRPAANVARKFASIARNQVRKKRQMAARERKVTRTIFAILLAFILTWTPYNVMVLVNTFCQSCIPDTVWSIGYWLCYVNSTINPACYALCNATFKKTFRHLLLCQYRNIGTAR
Experimental: as §1

[3] = read-out: % Emax cf. ACh (M4), CHO cells stably expressing human M4, relative to ACh

Row | Structure (SMILES) | EC50 [1] | Emax [1] | EC50 [2] | Emax [2, 3] | pEC50 M1 [1] | % Emax cf. ACh (M1) [1] | pEC50 M4 [2] | % Emax cf. ACh (M4) ([2]; relative to ACh) | Emax ([2]; read-out: % Emax cf. ACh (M4))
1 | CCN(CC)C(=O)C1C2CN(C3CC4CCCC(C3)N4C(=O)OC)CC21 (single isomer, unassigned; isomer 1) [9-3 Isomer 1] | – | – | – | – | 6.40 | 106% | 6.12 | 60% | –
2 | COC(=O)N1C2COCC1CC(N1CC3C(C1)C3C(=O)N(C)C(C)C)C2 (single isomer, unassigned; isomer 2) [10-5 Isomer 2] | – | – | – | – | 5.66 | 101% | 4.90 | 90% | –
3 | CC(=O)OCC[N+](C)(C)C [ACh, acetylcholine, reference compound] | – | – | – | – | – | – | – | – | 109%
4 | CCOC(=O)N1C2CCCC1CC(N1CC3C(C1)C3C(=O)N(CC)CC)C2 (single isomer, unassigned; isomer 1) [9-2 Isomer 1] | – | – | – | – | 6.56 | 102% | 5.87 | 41% | –
5 | CCOC(=O)N1C2CCCC1CC(N1CC3C(C1)C3C(=O)N(C)CC)C2 (single isomer, unassigned; isomer 2) [9-1 Isomer 2] | – | – | – | – | 6.01 | 93% | < 4.70 | 24% | –
6 | COC(=O)N1C2COCC1CC(N1CC3C(C1)C3C(=O)N1CCCCC1)C2 (single isomer, unassigned; isomer 2) [10-12 Isomer 2] | – | – | – | – | 5.99 | 99% | 4.85 | 86% | –
7 | CCN(C(=O)C1C2CN(C3CC4COCC(C3)N4C(=O)OC)CC21)C(C)C (single isomer, unassigned; isomer 2) [10-7 Isomer 2] | – | – | – | – | 6.83 | 100% | 6.23 | 64% | –
8 | CCOC(=O)N1C2COCC1CC(N1CC3C(C1)C3C(=O)N(C)C1CC1)C2 (single isomer, unassigned; isomer 1) [10-8 Isomer 1] | – | – | – | – | 5.99 | 116% | 4.84 | 47% | –
9 | CCN(CC)C(=O)C1C2CN(C3CC4COCC(C3)N4C(=O)OC)CC21 (single isomer, unassigned; isomer 2) [10-3 Isomer 2] | – | – | – | – | 5.75 | 81% | < 4.70 | 25% | –
10 | CCN(C(=O)C1C2CN(C3CC4COCC(C3)N4C(=O)OC)CC21)C(C)C (single isomer, unassigned; isomer 1) [10-7 Isomer 1] | – | – | – | – | 7.42 | 99% | 6.79 | 69% | –
11 | COC(=O)N1C2COCC1CC(N1CC3C(C1)C3C(=O)N(C)C(C)C)C2 (single isomer, unassigned; isomer 1) [10-5 Isomer 1] | – | – | – | – | 6.30 | 99% | 5.91 | 81% | –
12 | CCOC(=O)N1C2COCC1CC(N1CC3C(C1)C3C(=O)N(CC)C1CC1)C2 (single isomer, unassigned; isomer 2) [10-9 Isomer 2] | – | – | – | – | 6.57 | 105% | 5.47 | 38% | –

More lines, main results first:

Row | EC50 [1] | Emax [1] | EC50 [2] | Emax [2, 3] | pEC50 M1 [1] | % Emax cf. ACh (M1) [1] | pEC50 M4 [2] | % Emax cf. ACh (M4) ([2]; relative to ACh) | Structure (SMILES) | Emax ([2]; read-out: % Emax cf. ACh (M4))
13 | 132 nM | 110% | 955 nM | 81% | – | – | – | – | CCOC(=O)N1CC2(CC(N3C[C@@H]4[C@H](C3)[C@H]4C(=O)N(CC)CC)C2)C1 [Example 1-2, ethyl 6-[(1R,5S,6r)-6-(diethylcarbamoyl)-3-azabicyclo[3.1.0]hex-3-yl]-2-azaspiro[3.3]heptane-2-carboxylate] | –
14 | – | – | – | – | < 4.70 | 23% | 6.13 | 38% | CCOC(=O)N1C2CCC1CC(N1CC3C(CN(CC)C(C)=O)C3C1)C2 (single isomer, unassigned; isomer 2) [7-5 Isomer 2] | –
15 | 4570 nM | 55% | 617 nM | 47% | – | – | – | – | CCOC(=O)N1CC2(CC(N3C[C@@H]4[C@H](C3)[C@H]4c3csc(C)n3)C2)C1 [Example 1-4, ethyl 6-[(1R,5S,6r)-6-(2-methyl-1,3-thiazol-4-yl)-3-azabicyclo[3.1.0]hex-3-yl]-2-azaspiro[3.3]heptane-2-carboxylate] | –
16 | – | – | – | – | 5.67 | 83% | 5.80 | 62% | CCOC(=O)C1C2CN(C3CC4CCC(C3)N4C(=O)OCC)CC21 (single isomer, unassigned; isomer 2) [7-1 Isomer 2] | –
17 | 575 nM | – | > 20000 nM | – | – | 58% | – | 21% | CCOC(=O)N1CCC2(CC(N3CC4C(C3)C4OC(C)c3ccccc3)C2)C1 (single isomer, unassigned) [2-28 Isomer 1] | –
18 | > 20000 nM | 20% | 1480 nM | 32% | – | – | – | – | CCOC(=O)N1CCC2(CC(N3CC4C(C3)C4N(CC)CC(F)(F)F)C2)C1 (mixture of isomers) [2-27 Mixture of isomers] | –
19 | – | – | – | – | 6.11 | 116% | < 4.70 | 14% | CCOC(=O)N1C2CCC1CC(N1CC3C(C1)C3C(=O)N(C)CC)C2 (single isomer, unassigned; isomer 1) [7-2 Isomer 1] | –
20 | – | – | – | – | 5.94 | 56% | 6.21 | 73% | CCOC(=O)N1C2CCC1CC(N1CC3C(C1)C3c1csc(C)n1)C2 (single isomer, unassigned; isomer 2) [7-6 Isomer 2] | –
21 | – | – | – | – | 6.78 | 123% | 5.58 | 45% | CCOC(=O)N1C2CCC1CC(N1CC3C(C1)C3C(=O)N(CC)CC)C2 (single isomer, unassigned; isomer 1) [7-3 Isomer 1] | –
22 | 234 nM | 84% | 708 nM | 35% | – | – | – | – | CCOC(=O)N1CCC(N2C[C@@H]3[C@H](C2)[C@H]3C(=O)N(CC)CC)CC1 [Example 4-1] | –
23 | 1290 nM | – | 437 nM | 35% | – | 37% | – | – | CCOC(=O)N1CCC2(CC(N3CC4C(C3)C4C(CC)=NOC)C2)C1 (single isomer, unassigned) [2-25 Isomer 2] | –
24 | – | – | – | – | 6.66 | 113% | 4.96 | 53% | CCOC(=O)N1C2CCC1CC(N1CC3C(C1)C3C(=O)N(C)CC)C2 (single isomer, unassigned; isomer 2) [7-2 Isomer 2] | –
25 | – | – | – | – | 5.94 and 5.76 | 110% and 78% | < 4.70 | 24% and 15% | CCOC(=O)N1C2COCC1CC(N1CC3C(C1)C3C(=O)N(C)CC)C2 (single isomer, unassigned; isomer 1) [10-1 Isomer 1] | –
26 | – | – | – | – | 5.65 | 85% | 5.67 | 32% | CCOC(=O)N1C2COCC1CC(N1CC3C(C1)C3C(=O)N(C)C1CC1)C2 (single isomer, unassigned; isomer 2) [10-8 Isomer 2] | –
